In series [1] the target is T1, JAK3: Recombinant human kinase domain (h-jak3-sf21-c) (Homo sapiens, UniProt P52333).
T1 construct: JAK3: Recombinant human kinase domain from Millipore (Cat # 14-629) or prepared; purchased Millipore 14-629
The series can be described thus: Determination of IC50 of Janus Kinase (JAK) inhibition, JAK3 (radioactive end-point assay with 33P-ATP). Format: biochemical. The note with it: ATP 1.5 uM, peptide 50 uM, 20 minutes, room temperature. The text has this: Determination of IC50 of Janus Kinase (JAK) Inhibition:
Enzymes and peptide substrate used are described below: • JAK1: Recombinant human kinase domain from Invitrogen (Cat # PV4774) • JAK3: Recombinant human kinase domain from Millipore (Cat # 14-629) or prepared. • JAK2: Recombinant human kinase domain from Millipore (Cat # 14-640) • Substrate: N-terminally biotinylated 14-mer peptide derived from activation loop of JAK1 with sequence of the peptide substrate: Biotin-[…]
Assay conditions used are described below: • Assay Buffer: JAK Kinase Buffer: 50 mM Hepes [pH 7.2], 10 mM MgCl2, 1 mM DTT, 1 mg/mL BSA. The assay is carried out in this buffer. • Assay Format The kinase activity of all three JAK kinases is measured using a radioactive, end-point assay and with trace amounts of^33P-ATP. The assays are carried out in 96-well polypropylene plates. Experimental Method:
All concentrations are final in the reaction mixture and all incubations are carried at room temperature. Assay steps are described below: • 1) Compounds are serially diluted in 100% DMSO typically at a 10× starting concentration of 1 mM. Final concentration of DMSO in the reaction is 10%. • 2) Compounds are preincubated with enzyme (0.5 nM JAK3 (commercially available), 0.2 nM JAK3 (prepared), 1 nM JAK2, 5 nM JAK1) for 10 minutes. • 3) Reactions are initiated by the addition of a cocktail of the two substrates (ATP and peptide premixed in the JAK Kinase Buffer). In the JAK2/JAK3 assays, ATP and the peptide are used at concentrations of 1.5 uM and 50 uM, respectively. JAK1 assay is carried out at an ATP concentration of 10 uM and a peptide concentration of 50 uM. • 4) The duration of the assay for JAK2 and JAK3 is 20 minutes. JAK1 assay is carried out for 40 minutes. With all three enzymes, reactions are terminated by the addition of 0.5M EDTA to a final concentration of 100 mM. • 5) 25 ul of terminated reactions are transferred to 150 ul of a 7.5% (v/v) slurry of streptavidin-coated sepharose beads in MgCl2- and CaCl2-free 1× Phosphate Buffered Saline containing 50 mM of EDTA in 96-well, 1.2 um MultiScreen-BV filter plates. • 6) After a 30-minute incubation, the beads are washed under vacuum with the following buffers: • a. 3 to 4 washes with 200 ul of 2M NaCl. • b. 3 to 4 washes with 200 ul of 2M NaCl plus 1% (v/v) phosphoric acid. • c. 1 wash with water. • 7) Washed plates are dried in a 60° C. oven for between 1 to 2 hours. • 8) 70 ul of Microscint 20 scintillation fluid is added to each well of filter plates and after at least 30 minutes of incubation, radioactive counts are measured in a Perkinelmer microplate scintillation counter.

Where “and” joins values, the source holds several entries; their conditions need not be identical. Identical values can stand only once.

T1 sequence (P52333 822-1111 limits assumed): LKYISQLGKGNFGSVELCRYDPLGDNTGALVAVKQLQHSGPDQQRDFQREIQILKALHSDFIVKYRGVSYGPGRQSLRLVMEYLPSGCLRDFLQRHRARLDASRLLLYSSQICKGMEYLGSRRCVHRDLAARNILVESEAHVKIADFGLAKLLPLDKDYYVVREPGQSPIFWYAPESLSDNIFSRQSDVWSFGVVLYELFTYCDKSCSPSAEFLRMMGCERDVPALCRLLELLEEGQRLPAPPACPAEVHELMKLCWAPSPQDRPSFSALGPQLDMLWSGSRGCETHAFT

Turning to `O=C(NC1(CO)CCCC1)c1c[nH]c2ncc(C3CC3)nc12` [Compound I-3, 2-Cyclopropyl-5H-pyrrolo[2,3-b]pyrazine-7-carboxylic acid (1-hydroxymethyl-cyclopentyl)-amide], the melting point was in the range of 272 to 274 °C. The IC50 in series [1] came out at 44.2 nM.

With `CS(=O)(=O)N1CCC[C@H](NC(=O)c2c[nH]c3ncc(C4CC4)nc23)C1` [Compound I-30, 2-Cyclopropyl-5H-pyrrolo[2,3-b]pyrazine-7-carboxylic acid ((S)-1-methanesulfonyl-piperidin-3-yl)-amide], the melting point was 278 to 281 °C. Further, the IC50 in series [1] worked out at 55.5 nM.

The compound `CC1(C)CCCC1NC(=O)c1c[nH]c2ncc(C3CC3)nc12` (stereo not drawn) [Compound I-7, 2-Cyclopropyl-5H-pyrrolo[2,3-b]pyrazine-7-carboxylic acid (2,2-dimethyl-cyclopentyl)-amide] yielded a melting point of more than 300 °C. Besides, the IC50 in series [1] came out at 1.1 nM.

On to `O=C(NC1CCCCC1)c1c[nH]c2ncc(Oc3ccc(F)cc3F)nc12` [Compound I-34, 2-(2,4-Difluoro-phenoxy)-5H-pyrrolo[2,3-b]pyrazine-7-carboxylic acid cyclohexylamide], for which the melting point is 245 to 247 °C. In series [1], the IC50 amounted to 424 nM.

Compound `O=C(NC1CCCC1)c1c[nH]c2ncc(C3CC3)nc12` [Compound I-23, 2-Cyclopropyl-5H-pyrrolo[2,3-b]pyrazine-7-carboxylic acid cyclopentylamide] showed a melting point of more than 300 °C. For the same compound, in series [1], the IC50 amounted to 13.3 nM.

On to `N#CC1(NC(=O)c2c[nH]c3ncc(C4CC4)nc23)CC1` [Compound I-10, 2-Cyclopropyl-5H-pyrrolo[2,3-b]pyrazine-7-carboxylic acid (1-cyano-cyclopropyl)-amide], for which the melting point was more than 300 °C. Moreover, in series [1], the IC50 was determined as 524 nM.

In turn, `O=C(Nc1cccc(C(F)(F)F)c1)c1c[nH]c2ncc(C3CC3)nc12` [Compound I-8, 2-Cyclopropyl-5H-pyrrolo[2,3-b]pyrazine-7-carboxylic acid (3-trifluoromethyl-phenyl)-amide] came in with a melting point of 271.1 to 272.9 °C. Moreover, the IC50 in series [1] came to 963 nM.

In turn, `O=C(NC1(CO)CCOCC1)c1c[nH]c2ncc(C3CC3)nc12` [Compound I-2, 2-Cyclopropyl-5H-pyrrolo[2,3-b]pyrazine-7-carboxylic acid (4-hydroxymethyl-tetrahydro-pyran-4-yl)-amide] showed a melting point of 294 to 296 °C. In addition, in series [1], the IC50 came to 674 nM.

`CC1(C)CCCCC1NC(=O)c1c[nH]c2ncc(C3CC3)nc12` (stereo not drawn) [Compound I-32, 2-Cyclopropyl-5H-pyrrolo[2,3-b]pyrazine-7-carboxylic acid (2,2-dimethyl-cyclohexyl)-amide] gave a melting point of 295 to 297 °C. For the same compound, in series [1], the IC50 is 1.1 nM.

Take `O=C(NC1CCOCC1)c1c[nH]c2ncc(C3CC3)nc12` [Compound I-1, 2-Cyclopropyl-5H-pyrrolo[2,3-b]pyrazine-7-carboxylic acid (tetrahydro-pyran-4-yl)-amide]: the melting point is more than 300 °C. Besides, in series [1], the IC50 amounted to 42 nM.

In turn, `Cc1ccc(C#N)cc1NC(=O)c1c[nH]c2ncc(C3CC3)nc12` [Compound I-9, 2-Cyclopropyl-5H-pyrrolo[2,3-b]pyrazine-7-carboxylic acid (5-cyano-2-methyl-phenyl)-amide] yielded a melting point of 280 to 284 °C. Also, the IC50 in series [1] amounted to 157 nM.

`CC(C)(O)C1(NC(=O)c2c[nH]c3ncc(C4CC4)nc23)CCOC1` (stereo not drawn) [Compound I-18, 2-Cyclopropyl-5H-pyrrolo[2,3-b]pyrazine-7-carboxylic acid [3-(1-hydroxy-1-methyl-ethyl)-tetrahydro-furan-3-yl]-amide] gave a melting point of 213 to 215 °C. In addition, in series [1], the IC50 amounted to 342 nM.

`CC(C)S(=O)(=O)N1CCCC(NC(=O)c2c[nH]c3ncc(C4CC4)nc23)C1` (stereo not drawn) [Compound I-29, 2-Cyclopropyl-5H-pyrrolo[2,3-b]pyrazine-7-carboxylic acid [1-(propane-2-sulfonyl)-piperidin-3-yl]-amide] returned a melting point of 255 to 258 °C. In addition, in series [1], the IC50 came to 73.2 nM.

For the compound `N#CCC1(NC(=O)c2c[nH]c3ncc(C4CC4)nc23)CCCC1` [Compound I-26, 2-Cyclopropyl-5H-pyrrolo[2,3-b]pyrazine-7-carboxylic acid (1-cyanomethyl-cyclopentyl)-amide], the melting point is 280 to 281.1 °C and 280 to 281 °C. The IC50 in series [1] is 26.3 nM.

Regarding `O=C(NC1CCCCC1)c1c[nH]c2ncc(C3CC3)nc12` [Compound I-22, 2-Cyclopropyl-5H-pyrrolo[2,3-b]pyrazine-7-carboxylic acid cyclohexylamide], the melting point is more than 300 °C. Besides, the concentration for half-maximal inhibition (IC50) in series [1] is 5.2 nM.

Regarding `O=C(NC1CCCCC1)c1c[nH]c2ncc(Oc3ccccc3)nc12` [Compound I-33, 2-Phenoxy-5H-pyrrolo[2,3-b]pyrazine-7-carboxylic acid cyclohexylamide], the melting point was 255 to 257 °C. Further, the IC50 in series [1] turned out to be 153 nM.

`CS(=O)(=O)N1CCC(NC(=O)c2c[nH]c3ncc(C4CC4)nc23)C1` (stereo not drawn) [Compound I-20, 2-Cyclopropyl-5H-pyrrolo[2,3-b]pyrazine-7-carboxylic acid (1-methanesulfonyl-pyrrolidin-3-yl)-amide] gave a melting point of more than 300 °C. In addition, the IC50 in series [1] amounted to 35.4 nM.

In turn, `CC(=O)N1CCCC(NC(=O)c2c[nH]c3ncc(C4CC4)nc23)C1` (stereo not drawn) [Compound I-38, 2-Cyclopropyl-5H-pyrrolo[2,3-b]pyrazine-7-carboxylic acid (1-acetyl-piperidin-3-yl)-amide] yielded a melting point of 215 to 218 °C. Besides, the IC50 in series [1] is 74.2 nM.

These data come from US8329699B2, “Pyrrolopyrazine kinase inhibitors” (Hoffmann-La Roche Inc., priority 2010, dated 2012).
